Tests used:
all the UGTs combined = assay: UGT reaction phenotyping, all the UGTs combined; assay type: in vitro ADME, Human
Excerpt: Experimental Summary: UGT Reaction Phenotyping (7 Isoforms).

[1] = PK study after oral (PO) or intraperitoneal (IP) administration; assay type: in vivo, male Sprague Dawley rats; details: CBG 30 mg/kg PO or IP; Compound 1 31.5 mg/kg PO; Compound 2 32.7 mg/kg PO
Protocol: This study evaluated the pharmacokinetics of (E)-2-(3,7-dimethylocta-2,6-dien-1-yl)-3-methoxy-5-pentylphenol (1) and (E)-2-(3,7-dimethylocta-2,6-dien-1-yl)-1,3-dimethoxy-5-pentylbenzene (2) following oral (PO) or intraperitoneal (IP) administration to male Sprague Dawley rats.
For the oral formulation the test article was added to the appropriate amount of Maisine and stirred until uniform. Next Labrasol was added to the formulation and allowed to stir until uniform. Finally, water will be slowly added to the stirring formulation to achieve the final volume.
For the IP formulation the test article was added to the appropriate amount of ethanol and stirred until uniform. Next, the appropriate amount of tween-20 was added to the stirred formulation. Finally, the appropriate amount of saline was slowly added to the stirred formulation to achieve the final volume.
Animals were fasted the evening prior to dosing with food returned at 4 h postdose, and the animals weighed on the morning of dose administration.
IP doses were administered via injection to the intraperitoneal region. PO doses were delivered into the stomach via syringe and gavage tube.
Blood was collected from via direct jugular stick or from the tail vein. Blood samples were kept on ice until being centrifuged at 3200 RPM for 10 minutes at ˜5° C. within 1 h of collection. Plasma was split into 2 cryovials in approximately equal volumes (0.05 mLs) and stored at −20° C.±5° C. until shipment.

[2] = test system: p-cMyc(S62), cMyc, p-AKT(S473), AKT, p-ERK(T202/Y204), ERK in SW620, HCT15, HCT116 cells; assay: Target engagement by Western blot in colon cancer cell lines; assay type: cell-based; details: HCT 116 cells; 10-80 μM, 3 hours; with a dose effect
Protocol: For Western blot, the compounds were tested at 4 concentrations for 3 hours on 3 colon cancer cell lines. The compounds, concentrations, colon cancer cell line panel, and antibodies panel tested are the following: • CBG: 0 μM, 10 μM, 20 μM, 40 μM, and 80 μM. • Compound 1: 0 μM, 10 μM, 20 μM, 40 μM, and 80 μM. • Compound 2: 0 μM, 10 μM, 20 μM, 40 μM, and 80 μM. • Colon cancer cell line panel: SW620, HCT15, HCT116 • Antibodies panel: p-cMYC(S62), cMyc, p-AKT(S473), AKT, p-ERK(T202/Y204), ERK Methods
Evaluation of target engagement was performed to determine the expression of specific marker protein expression and underlying signaling pathways with Western blot.
Western blot. Whole cell extracts were prepared by incubating cell pellets in IP lysis buffer supplemented with protease and phosphatase inhibitors (Roche). Isolated protein was quantified by Pierce BCA Protein assay (ThermoFisher). Equal quantities of protein were separated by 4-15% SDS-PAGE electrophoresis gels and transferred onto nitrocellulose membranes. Membranes was blocked with 5% nonfat milk in Tris-buffered saline-Tween buffer. […]

Structure (SMILES) | activity of UGT2B7 relative to UGT1A9 (all the UGTs combined) | share of the activity for all the UGTs combined represented by UGT1A9 (all the UGTs combined) [%] | glucuronidation / glucuronide formation in plasma (in words) [1] | pAKT(S473) (Western blot) [2]
CCCCCc1cc(O)c(C/C=C(\C)CCC=C(C)C)c(O)c1 [CBG, cannabigerol] | approximately 1/10 | ~80 | converted by glucuronidation to CBG-glucoronide | –
CCCCCc1cc(O)c(C/C=C(\C)CCC=C(C)C)c(OC)c1 [Compound 1, (E)-2-(3,7-dimethylocta-2,6-dien-1-yl)-3-methoxy-5-pentylphenol] | – | – | significantly reduced levels of glucuronidation compared to CBG | down-regulated
